In the NIST ThermoML archive (doi:10.1021/je400332j):

Assay: xn = mol fraction of the nth substance listed
Details: 101 kPa, Liquid; for mass density: Vibrating tube method; for viscosity: Concentric cylinders viscometry

CCCn1cc[n+](C)c1.F[B-](F)(F)F [1-propyl-3-methylimidazolium tetrafluoroborate] + CCn1cc[n+](C)c1.F[B-](F)(F)F
Details	mass density [kg/m3]	viscosity [mPa·s]
318.15 K, x2 = 0	1221	–
318.15 K, x2 = 0.1003	1225.1	–
318.15 K, x2 = 0.2001	1229.3	–
318.15 K, x2 = 0.2997	1233.3	–
318.15 K, x2 = 0.3999	1237.6	–
318.15 K, x2 = 0.4996	1241.9	–
318.15 K, x2 = 0.5991	1246.3	–
318.15 K, x2 = 0.6997	1250.9	–
318.15 K, x2 = 0.7999	1255.6	–
318.15 K, x2 = 0.8998	1260.3	–
323.15 K, x2 = 0	1217.4	26.83
323.15 K, x2 = 0.1003	1221.5	25.66
323.15 K, x2 = 0.2001	1225.6	24.47
323.15 K, x2 = 0.2997	1229.7	23.33
323.15 K, x2 = 0.3999	1233.9	22.21
323.15 K, x2 = 0.4996	1238.2	21.2
323.15 K, x2 = 0.5991	1242.6	20.24
323.15 K, x2 = 0.6997	1247.1	19.31
323.15 K, x2 = 0.7999	1251.8	18.46
323.15 K, x2 = 0.8998	1256.5	17.65
328.15 K, x2 = 0	1213.8	22.77
328.15 K, x2 = 0.1003	1217.9	21.85
328.15 K, x2 = 0.2001	1222	20.91
328.15 K, x2 = 0.2997	1226	20.01
328.15 K, x2 = 0.3999	1230.3	19.1
328.15 K, x2 = 0.4996	1234.6	18.3
328.15 K, x2 = 0.5991	1238.9	17.52
328.15 K, x2 = 0.6997	1243.4	16.78
328.15 K, x2 = 0.7999	1248.1	16.07
328.15 K, x2 = 0.8998	1252.8	15.43
333.15 K, x2 = 0	1210.2	19.54
333.15 K, x2 = 0.1003	1214.3	18.8
333.15 K, x2 = 0.2001	1218.4	18.05
333.15 K, x2 = 0.2997	1222.4	17.32
333.15 K, x2 = 0.3999	1226.6	16.57
333.15 K, x2 = 0.4996	1230.9	15.92
333.15 K, x2 = 0.5991	1235.2	15.29
333.15 K, x2 = 0.6997	1239.8	14.67
333.15 K, x2 = 0.7999	1244.4	14.1
333.15 K, x2 = 0.8998	1249.1	13.58
338.15 K, x2 = 0	1206.6	16.92
338.15 K, x2 = 0.1003	1210.7	16.33
338.15 K, x2 = 0.2001	1214.8	15.72
338.15 K, x2 = 0.2997	1218.8	15.12
338.15 K, x2 = 0.3999	1222.9	14.49
338.15 K, x2 = 0.4996	1227.3	13.96
338.15 K, x2 = 0.5991	1231.6	13.43
338.15 K, x2 = 0.6997	1236.1	12.94
338.15 K, x2 = 0.7999	1240.7	12.46
338.15 K, x2 = 0.8998	1245.4	12.04
343.15 K, x2 = 0	1203	14.77
343.15 K, x2 = 0.1003	1207.1	14.3
343.15 K, x2 = 0.2001	1211.1	13.8
343.15 K, x2 = 0.2997	1215.2	13.3
343.15 K, x2 = 0.3999	1219.4	12.77
343.15 K, x2 = 0.4996	1223.7	12.32
343.15 K, x2 = 0.5991	1228	11.89
343.15 K, x2 = 0.6997	1232.5	11.47
343.15 K, x2 = 0.7999	1237.1	11.07
343.15 K, x2 = 0.8998	1241.7	10.74
